Test results published in ChEMBL document CHEMBL3046192, “Development of new fungicides against Magnaporthe grisea: synthesis and biological activity of pyrazolo[3,4-d][1,3]thiazine, pyrazolo[1,5-c][1,3,5]thiadiazine, and pyrazolo[3,4-d]pyrimidine derivatives” (J Agric Food Chem, 2002).
Calls of active or inactive are those of the source. No cut-off for these calls is given here.

What follows are compounds tested on Pyricularia grisea (assay: microbe, parasite or virus in culture). Settings: ATCC 64413, 120 h.
Type: functional

Structure (SMILES) | inhibition at 100 µg/mL
O=c1sc(-c2ccccc2)nc2ccnn12 | 73.1%
O=c1sc(-c2ccccc2)nc2cc(-c3ccccc3)nn12 | 15%
Cc1n[nH]c2nc(Cc3ccccc3)sc(=O)c12 | 77%
Cc1nn(-c2ccc(Cl)c(Cl)c2)c2nc(C(F)(F)F)[nH]c(=S)c12 | 100%
Cc1cc2nc(C(F)(F)F)sc(=O)n2n1 | 99.5%
Cc1cc2nc(-c3ccc(Cl)cc3)sc(=O)n2n1 | 66%
Cc1nn(-c2cccc([N+](=O)[O-])c2)c2nc(C(F)(F)F)[nH]c(=S)c12 | 78%
Cc1nn(-c2ccccc2)c2nc(C(F)(F)F)sc(=S)c12 | 29.6%
Cc1n[nH]c2nc(-c3ccccc3)sc(=S)c12 | 17%
Cc1n[nH]c2nc(-c3ccccc3)sc(=O)c12 | 28%
Cc1cc2nc(C(F)(F)F)sc(=S)n2n1 | 79.7%
Cc1nn(-c2cccc([N+](=O)[O-])c2)c2nc(C(F)(F)F)sc(=O)c12 | 54.4%
Cc1cc2nc(-c3ccc(Br)cc3)sc(=O)n2n1 | 58%
Cc1nn(-c2ccc(Cl)c(Cl)c2)c2nc(C(F)(F)F)sc(=S)c12 | 90.5%
Cc1n[nH]c2nc(Cc3ccccc3)sc(=S)c12 | 76%
Cc1cc2nc(-c3ccccc3)sc(=O)n2n1 | 100%
Cc1nn(-c2ccccc2)c2nc(C(F)(F)F)[nH]c(=S)c12 | 55%
Cc1nn(C(C)(C)C)c2nc(-c3ccccc3)sc(=S)c12 | 16%
Cc1nn(C(C)(C)C)c2nc(C(F)(F)F)sc(=S)c12 | 42.7%
Cc1nn(C(C)(C)C)c2nc(-c3ccccc3)sc(=O)c12 | 16%
Cc1nn(-c2cccc([N+](=O)[O-])c2)c2nc(C(F)(F)F)sc(=S)c12 | 91.7%
Cc1nn(C(C)(C)C)c2nc(C(F)(F)F)[nH]c(=S)c12 | 35%
Cc1cccc2sc3nncn3c12 [TRICYCLAZOLE] | 61.5%

System: Pyricularia grisea
Assay: microbe, parasite or virus in culture
Type: functional
Settings: ATCC 64413, 120 h
Remark: another data set of the same source

Structure (SMILES) | inhibition at 50 µg/mL
O=c1sc(-c2ccccc2)nc2ccnn12 | 70.2%
O=c1sc(-c2ccccc2)nc2cc(-c3ccccc3)nn12 | 15%
Cc1n[nH]c2nc(Cc3ccccc3)sc(=O)c12 | 57%
Cc1nn(-c2ccc(Cl)c(Cl)c2)c2nc(C(F)(F)F)[nH]c(=S)c12 | 91%
Cc1cc2nc(C(F)(F)F)sc(=O)n2n1 | 97.9%
Cc1cc2nc(-c3ccc(Cl)cc3)sc(=O)n2n1 | 62%
Cc1nn(-c2cccc([N+](=O)[O-])c2)c2nc(C(F)(F)F)[nH]c(=S)c12 | 61%
Cc1n[nH]c2nc(-c3ccccc3)sc(=S)c12 | 15%
Cc1n[nH]c2nc(-c3ccccc3)sc(=O)c12 | 24%
Cc1cc2nc(C(F)(F)F)sc(=S)n2n1 | 79.6%
Cc1nn(-c2cccc([N+](=O)[O-])c2)c2nc(C(F)(F)F)sc(=O)c12 | 39.6%
Cc1cc2nc(-c3ccc(Br)cc3)sc(=O)n2n1 | 47%
Cc1nn(-c2ccc(Cl)c(Cl)c2)c2nc(C(F)(F)F)sc(=S)c12 | 83.1%
Cc1n[nH]c2nc(Cc3ccccc3)sc(=S)c12 | 75%
Cc1cc2nc(-c3ccccc3)sc(=O)n2n1 | 100%
Cc1nn(-c2ccccc2)c2nc(C(F)(F)F)[nH]c(=S)c12 | 37%
Cc1nn(C(C)(C)C)c2nc(-c3ccccc3)sc(=S)c12 | 16%
Cc1nn(C(C)(C)C)c2nc(-c3ccccc3)sc(=O)c12 | 14%
Cc1nn(-c2cccc([N+](=O)[O-])c2)c2nc(C(F)(F)F)sc(=S)c12 | 89.1%
Cc1nn(C(C)(C)C)c2nc(C(F)(F)F)[nH]c(=S)c12 | 31%
Cc1cccc2sc3nncn3c12 [TRICYCLAZOLE] | 23.5%

These compounds were tested on Pyricularia grisea (assay: Antifungal activity against Magnaporthe grisea ATCC 64413 assessed as depigmentation of mycelium at 200 ug/ml). Settings: not given.
Type: functional, organism-based

Structure (SMILES) | Activity
Cc1n[nH]c2nc(Cc3ccccc3)sc(=S)c12 | Active

The compounds below were run on Oryza sativa (assay: Toxicity in Oryza sativa (rice) assessed as seedling growth at >10 ug/ml after 10 days). Settings: in vivo, 240 h.
Type: organism-based

Structure (SMILES) | Activity
Cc1cc2nc(-c3ccccc3)sc(=O)n2n1 | Toxic

System: Pyricularia grisea
Assay: microbe, parasite or virus in culture
Type: functional
Settings: ATCC 64413, 120 h
Remark: another data set of the same source

Structure (SMILES) | inhibition at 200 µg/mL
O=c1sc(-c2ccccc2)nc2ccnn12 | 75.1%
O=c1sc(-c2ccccc2)nc2cc(-c3ccccc3)nn12 | 15%
Cc1n[nH]c2nc(Cc3ccccc3)sc(=O)c12 | 80%
Cc1nn(-c2ccc(Cl)c(Cl)c2)c2nc(C(F)(F)F)[nH]c(=S)c12 | 100%
Cc1cc2nc(C(F)(F)F)sc(=O)n2n1 | 100%
Cc1cc2nc(-c3ccc(Cl)cc3)sc(=O)n2n1 | 66%
Cc1nn(-c2cccc([N+](=O)[O-])c2)c2nc(C(F)(F)F)[nH]c(=S)c12 | 95.9%
Cc1nn(-c2ccccc2)c2nc(C(F)(F)F)sc(=S)c12 | 43.8%
Cc1n[nH]c2nc(-c3ccccc3)sc(=S)c12 | 21%
Cc1n[nH]c2nc(-c3ccccc3)sc(=O)c12 | 30%
Cc1cc2nc(C(F)(F)F)sc(=S)n2n1 | 93.2%
Cc1nn(-c2cccc([N+](=O)[O-])c2)c2nc(C(F)(F)F)sc(=O)c12 | 81.1%
Cc1cc2nc(-c3ccc(Br)cc3)sc(=O)n2n1 | 74%
Cc1nn(-c2ccc(Cl)c(Cl)c2)c2nc(C(F)(F)F)sc(=S)c12 | 100%
Cc1n[nH]c2nc(Cc3ccccc3)sc(=S)c12 | 77%
Cc1cc2nc(-c3ccccc3)sc(=O)n2n1 | 100%
Cc1nn(-c2ccccc2)c2nc(C(F)(F)F)[nH]c(=S)c12 | 58%
Cc1nn(C(C)(C)C)c2nc(-c3ccccc3)sc(=S)c12 | 17%
Cc1nn(C(C)(C)C)c2nc(C(F)(F)F)sc(=S)c12 | 58.3%
Cc1nn(C(C)(C)C)c2nc(-c3ccccc3)sc(=O)c12 | 19%
Cc1nn(-c2cccc([N+](=O)[O-])c2)c2nc(C(F)(F)F)sc(=S)c12 | 100%
Cc1nn(C(C)(C)C)c2nc(C(F)(F)F)[nH]c(=S)c12 | 44%
Cc1cccc2sc3nncn3c12 [TRICYCLAZOLE] | 94%

The compounds below were run on Pyricularia grisea (assay: Antifungal activity against Magnaporthe grisea ATCC 64413 infected rice plant assessed as growth inhibition at 1 to 10 ug/ml after 5 days). Settings: not given.
Type: functional, organism-based

Structure (SMILES) | Activity
Cc1cc2nc(-c3ccccc3)sc(=O)n2n1 | Active

System: Pyricularia grisea
Assay: microbe, parasite or virus in culture
Type: functional
Settings: ATCC 64413, 120 h
Remark: another data set of the same source

Structure (SMILES) | inhibition at 10 µg/mL
O=c1sc(-c2ccccc2)nc2ccnn12 | 67%
O=c1sc(-c2ccccc2)nc2cc(-c3ccccc3)nn12 | 15%
Cc1n[nH]c2nc(Cc3ccccc3)sc(=O)c12 | 30%
Cc1nn(-c2ccc(Cl)c(Cl)c2)c2nc(C(F)(F)F)[nH]c(=S)c12 | 52%
Cc1cc2nc(C(F)(F)F)sc(=O)n2n1 | 64.5%
Cc1cc2nc(-c3ccc(Cl)cc3)sc(=O)n2n1 | 17%
Cc1nn(-c2cccc([N+](=O)[O-])c2)c2nc(C(F)(F)F)[nH]c(=S)c12 | 32%
Cc1n[nH]c2nc(-c3ccccc3)sc(=S)c12 | 14%
Cc1n[nH]c2nc(-c3ccccc3)sc(=O)c12 | 16%
Cc1cc2nc(C(F)(F)F)sc(=S)n2n1 | 48.4%
Cc1nn(-c2cccc([N+](=O)[O-])c2)c2nc(C(F)(F)F)sc(=O)c12 | 21.9%
Cc1cc2nc(-c3ccc(Br)cc3)sc(=O)n2n1 | 47%
Cc1nn(-c2ccc(Cl)c(Cl)c2)c2nc(C(F)(F)F)sc(=S)c12 | 57.7%
Cc1n[nH]c2nc(Cc3ccccc3)sc(=S)c12 | 73%
Cc1cc2nc(-c3ccccc3)sc(=O)n2n1 | 92.4%
Cc1nn(-c2ccccc2)c2nc(C(F)(F)F)[nH]c(=S)c12 | 23%
Cc1nn(C(C)(C)C)c2nc(-c3ccccc3)sc(=S)c12 | 14%
Cc1nn(C(C)(C)C)c2nc(-c3ccccc3)sc(=O)c12 | 14%
Cc1nn(-c2cccc([N+](=O)[O-])c2)c2nc(C(F)(F)F)sc(=S)c12 | 71.2%
Cc1nn(C(C)(C)C)c2nc(C(F)(F)F)[nH]c(=S)c12 | 25%
Cc1cccc2sc3nncn3c12 [TRICYCLAZOLE] | 0%

These compounds were tested on Oryza sativa (assay: Toxicity in Oryza sativa (rice) assessed as seedling growth at 1 to 10 ug/ml after 10 days). Settings: in vivo, 240 h.
Type: organism-based

Structure (SMILES) | Activity
Cc1cc2nc(-c3ccccc3)sc(=O)n2n1 | Non-toxic

These compounds were tested on Oryza sativa (assay: Toxicity in Oryza sativa (rice) assessed as cell culture growth at 1 to 10 ug/ml after 10 days). Settings: 240 h.
Type: organism-based

Structure (SMILES) | Activity
Cc1cc2nc(-c3ccccc3)sc(=O)n2n1 | Non-toxic
